# Earlier results in patent US20250208121A1, “MAMMALIAN PER- AND POLYFLUORINATED-ALKYL COMPOUND (PFAS) BINDING PROTEINS AND USES THEREOF” (Allonnia, LLC, priority 2023, published 2025).
# Conditions: in humans; previous research
smiles,measurement,value
"O=C(O)C(F)(F)C(F)(F)C(F)(F)C(F)(F)C(F)(F)C(F)(F)C(F)(F)F [PFOA, perfluorooctanoic acid]",half-life,~3.8 years
"O=S(=O)(O)C(F)(F)C(F)(F)C(F)(F)C(F)(F)C(F)(F)C(F)(F)C(F)(F)C(F)(F)F [PFOS, perfluorooctanesulfonic acid]",half-life,approximately 5.4 years
